Where two headings read alike, the source gives them in different places.
Tests used:
[1] = system: stable HCV 1a RLuc replicon cells (dicistronic genotype 1a H77 replicon); assay: Renilla luciferase HCV replicon reporter assay, genotype 1a; type: cell-based; details: Hepatitis C virus, 72 h, stable 1a H77 RLuc replicon cells
How it was run: (§1)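 72 h compound exposure (3-fold dilutions from 10 mM DMSO stocks) of replicon cells: stable dicistronic RLuc 1a H77, 1b Con1, 2a JFH-1 (NS5A L31); J6-NS5A chimera in JFH-1 (M31), transient in Huh-Lunet or stable. Renilla luciferase read-out, non-linear regression → EC50. DMSO negative control.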

[2] = system: NS5A chimeric genotype 2a JFH-1 replicon with genotype 2a J6 strain NS5A gene (M31 present); assay: Replicon assay, genotype 2a J6 NS5A chimera; type: cell-based, HCV; details: Hepatitis C virus
How it was run: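 Antiviral EC50 was determined in HCV replicon cells (stable RLuc lines for 1a H77, 1b Con1, 2a JFH-1 with NS5A L31; J6 NS5A chimera with M31) treated 72 h with compound. Renilla luciferase was then quantified.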

[3] = system: NS5A chimeric genotype 1b Con1 replicon with genotype 4a ED43 strain NS5A gene; assay: Replicon assay, genotype 4a NS5A chimera; type: cell-based, HCV; details: Hepatitis C virus
[4] = system: stable HCV 1b RLuc replicon cells (dicistronic genotype 1b Con1 replicon); assay: Renilla luciferase HCV replicon reporter assay, genotype 1b; type: cell-based; details: Hepatitis C virus, 72 h, stable 1b Con1 RLuc replicon cells, 72 hours; read-out: 1b
How it was run: as §1

[5] = IV and PO single dose pharmacokinetic studies in SD rats; type: in vivo, male Sprague-Dawley (SD) rats; details: Sprague-Dawley, rat, plasma, male SD rats, PO 2 mg/kg vs IV infusion 1 mg/kg, read-out: Rat % F
Description: IV and PO Single Dose Pharmacokinetic Studies in SD Rats:
The pharmacokinetics of selected compounds was characterized in male Sprague-Dawley (SD) rats (250-300g). In this study, two groups of naïve purebred SD rats (N=3 per group, fasted over night) received the selected compound either as an intravenous (IV) infusion (1 mg/kg over 30 minutes) via the jugular vein or by oral gavage (2 mg/kg). The intravenous (IV) dosing vehicle was 5% ethanol, 35% polyethylene glycol 400 (PEG 400) and 60% water pH 2.0. The oral dosing vehicle was 5% ethanol, 55% PEG 400 and 40% citrate buffer pH 2.2.
Serial blood samples (approximately 0.3 mL each) were collected from jugular vein or other suitable vein at specified time points. For the IV infusion group, the blood samples were collected predose and at 0.25, 0.48, 0.58, 0.75, 1.5, 3, 6, 8, 12 and 24 hours after the start of infusion. For the oral group, the blood samples were collected predose and at 0.25, 0.50, 1, 2, 4, 6, 8, 12 and 24 hours after dosing. The blood samples were collected into VacutainerγM tubes containing EDTA-K3 as the anti-coagulant and were centrifuged at approximately 4° C. to obtain plasma. The plasma samples were stored at −20° C. until analysis by LC/MS/MS.
A bioanalytical method utilizing high performance liquid chromatography coupled to tandem mass spectrometry (LC/MS/MS) was developed for analysis of the selected compound in rat plasma. Detection was performed using selected reaction monitoring (SRM); Ions representing the precursor (M+H)^+ species was selected in quadrupole 1 (Q1) and collided with argon gas in the collision cell (Q2) to generate specific product ion, which was subsequently monitored by quadrupole 3 (Q3). Standard curve and quality control samples were prepared in male rat plasma and processed in the same way as the test samples to generate quantitative data.
Pharmacokinetic parameters were generated using non-compartmental pharmacokinetic analysis (Phoenix WinNonlin, version 6.3). Values below the lower limit of quantification (LLOQ) were assigned a value of zero if predose and treated as missing thereafter. Area under the curve (AUC) was calculated using the linear trapezoidal rule. The oral bioavailability (% F) was determined by comparison of the area under the curve (AUC) of the compound and/or a metabolite generated in plasma following oral administration to that generated following intravenous administration.

[6] = system: NS5A chimeric genotype 1b Con1 replicon with genotype 3a S52 strain NS5A gene; assay: Replicon assay, genotype 3a NS5A chimera; type: cell-based, HCV; details: Hepatitis C virus
[7] = system: NS5A chimeric genotype 2a JFH-1 replicon with genotype 2b MD2b-1 strain NS5A gene (M31 present); assay: Replicon assay, genotype 2b NS5A chimera; type: cell-based, HCV; details: Hepatitis C virus
How it was run: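 EC50 was fitted by non-linear regression to Renilla luciferase signal after 72 h of exposure to 3-fold serially diluted compound (10 mM DMSO stocks). Controls were DMSO (none) and ITMN-191 above 100×EC50 (full). Chimeric 2a replicons were used either stable or transiently transfected into Huh-Lunet cells.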

[8] = system: stable HCV 2a JFH-1 Rluc replicon cells (L31 present in NS5A); assay: Renilla luciferase HCV replicon reporter assay, genotype 2a JFH-1; type: cell-based; details: Hepatitis C virus
How it was run: as §1

[9] = system: Q30R in genotype 1a NS5A (1a Pi-Rluc replicon, Huh-7-derived cured-51 cells); assay: Replicon assay against resistance mutant 1a Q30R; type: cell-based, HCV; details: Hepatitis C virus
How it was run: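 Q30R introduced by site-directed mutagenesis into the 1a Pi-RLuc replicon; replicon RNA transiently transfected into cured-51 cells. Cells treated with 3-fold serially diluted compound for 72 h, then lysed and Renilla luciferase measured; EC50 by non-linear regression.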

[10] = read-out: 2a J6 (t) (nM), genotype 2a J6 NS5A chimeric replicon (M31), transiently transfected (t) into Huh-Lunet cells
[11] = read-out: 2a J6 (t), transiently transfected (t) into Huh-Lunet cells, activity range
[12] = read-out: 4a (s) (nM), genotype 4a NS5A chimeric replicon, stable replicon cells (s)
[13] = read-out: 4a (s), (s), activity range
[14] = read-out: 3a (s) (nM), genotype 3a NS5A chimeric replicon, stable replicon cells (s)
[15] = read-out: 3a (s), (s), activity range
[16] = 2BS, read-out: 2b (s), stably replicating replicon cells (s), activity range
[17] = read-out: 2b (s) (nM), genotype 2b MD2b-1 NS5A chimeric replicon (M31), stably replicating replicon cells (s)
[18] = read-out: 2b (t) (nM), genotype 2b MD2b-1 NS5A chimeric replicon (M31), transiently transfected (t)
[19] = read-out: 2b (t), transiently transfected (t) into Huh-Lunet cells, activity range
[20] = read-out: 2a JFH (nM), genotype 2a JFH-1 replicon (L31 in NS5A), stable cells
[21] = read-out: 2a JFH, stable 2a JFH-1 Rluc replicon cells, L31 in NS5A, activity range

Compound | EC50 [1] [pM] | EC50 ([1]; activity range) [pM] | EC50 [2, 10] [nM] | EC50 [2, 11] [nM] | EC50 [3, 12] [nM] | EC50 [3, 13] [nM] | EC50 [4] [pM] | bioavailability [5] [%] | EC50 [6, 14] [nM] | EC50 [6, 15] [nM] | EC50 [7, 16] [nM] | EC50 [7, 17] [nM] | EC50 [7, 18] [nM] | EC50 [7, 19] [nM] | EC50 [8, 20] [nM] | EC50 [8, 21] [nM] | EC50 ([9]; read-out: 1a Q30R) [nM] | EC50 ([9]; read-out: 1a Q30R (nM)) [nM] | EC50 ([6]; read-out: 3a (t) (nM), genotype 3a NS5A chimeric replicon, transiently transfected (t)) [nM] | EC50 ([6]; read-out: 3a (t), transiently transfected (t) into Huh-Lunet cells, activity range) [nM]
COC(=O)N[C@H](C(=O)N1[C@@H](C)CC[C@H]1c1ncc(-c2ccc3c(c2)COc2cc4c(ccc5nc([C@@H]6CC[C@H](C)N6C(=O)[C@@H](NC(=O)OC)[C@@H](C)OC)[nH]c54)cc2-3)[nH]1)C(C)C [FA, Methyl [(2S)-1-{(2S,5S)-2-[5-(2-{(2S,5S)-1-[N-(methoxycarbonyl)-O-methyl-L-threonyl]-5-methylpyrrolidin-2-yl}-1,11-dihydroisochromeno[4′,3′:6,7]naphtho[1,2-d]imidazol-9-yl)-1H-imidazol-2-yl]-5-methylpyrrolidin-1-yl}-3-methyl-1-oxobutan-2-yl]carbamate] | 11 | < 100 | 0.033 | < 0.1 | 0.011 | < 0.1 | 14 | 13.5 | 0.034 | < 0.1 | 0.1 to 0.999 | 0.13 | 0.036 | < 0.1 | 0.014 | < 0.1 | < 0.1 | 0.046 | – | –
CC[C@H](C)[C@H](NC(=O)OC)C(=O)N1[C@@H](C)CC[C@H]1c1nc2ccc3cc4c(cc3c2[nH]1)OCc1cc(-c2cnc([C@@H]3CC[C@H](C)N3C(=O)[C@@H](NC(=O)OC)C3CCOCC3)[nH]2)ccc1-4 [FQ, Methyl [(1 S)-2-[(2S,5S)-2-(5-{2-[(2S,5S)-1-{(2S,3S)-2-[(methoxycarbonyl)amino]-3-methylpentanoyl}-5-methylpyrrolidin-2-yl]-1,11-dihydroisochromeno[4′,3′:6,7]naphtho[1,2-d]imidazol-9-yl}-1H-imidazol-2-yl)-5-methylpyrrolidin-1-yl]-2-oxo-1-(tetrahydro-2H-pyran-4-yl)ethyl]carbamate] | 12 | < 100 | – | – | – | – | 19 | 17.7 | 0.02 | < 0.1 | < 0.1 | 0.066 | – | – | 0.01 | < 0.1 | < 0.1 | 0.097 | – | –
CC[C@H](C)[C@H](NC(=O)OC)C(=O)N1[C@H](c2ncc(-c3ccc4c(c3)COc3cc5c(ccc6nc([C@@H]7CC[C@H](C)N7C(=O)[C@@H](NC(=O)OC)C7CCOCC7)[nH]c65)cc3-4)[nH]2)C[C@@H]2CCC[C@@H]21 [IL] | 28 | < 100 | – | – | 0.04 | < 0.1 | 34 | 40.9 | 0.083 | < 0.1 | 0.1 to 0.999 | 0.143 | 0.025 | – | 0.019 | < 0.1 | < 0.1 | – | – | –
COC(=O)N[C@H](C(=O)N1[C@@H](C)CC[C@H]1c1ncc(-c2ccc3c(c2)COc2cc4c(ccc5nc([C@@H]6C[C@H](C)CN6C(=O)[C@@H](NC(=O)OC)C6CCOCC6)[nH]c54)cc2-3)[nH]1)C(C)C [EI, methyl[(1 S)-2-[(2S,4S)-2-(9-{2-[(2S,5S)-1-{(2S)-2-[(methoxycarbonyl)amino]-3-methylbutanoyl}-5-methylpyrrolidin-2-yl]-1H-imidazol-5-yl}-1,11 dihydroisochromeno[4′,3′:6,7]naphtho[1,2-d]imidazol-2-yl)-4-methylpyrrolidin-1-yl]-2-oxo-1-(tetra hydro-2H-pyran-4-yl)ethyl]carbamate] | 25 | < 100 | 0.022 | < 0.1 | 0.02 | < 0.1 | 48 | 4.4 | 0.077 | < 0.1 | < 0.1 | 0.048 | – | – | 0.033 | < 0.1 | – | – | 0.074 | < 0.1
COC(=O)N[C@H](C(=O)N1[C@@H](C)CC[C@H]1c1ncc(-c2ccc3c(c2)COc2cc4c(ccc5nc([C@@H]6C[C@H](COC(F)F)CN6C(=O)[C@@H](NC(=O)OC)[C@@H](C)OC)[nH]c54)cc2-3)[nH]1)C(C)C [FO] | 10 | < 100 | – | – | 0.007 | < 0.1 | 9 | 17.2 | 0.055 | < 0.1 | 0.1 to 0.999 | 0.164 | – | – | 0.008 | < 0.1 | 0.1 to 0.999 | 0.112 | – | –
CC[C@H](C)[C@H](NC(=O)OC)C(=O)N1[C@@H](C)CC[C@H]1c1ncc(-c2ccc3c(c2)COc2cc4c(ccc5nc([C@@H]6C[C@@H]7CCC[C@@H]7N6C(=O)[C@@H](NC(=O)OC)C6CCOCC6)[nH]c54)cc2-3)[nH]1 [IP] | 25 | < 100 | 0.041 | < 0.1 | 0.027 | < 0.1 | 29 | 18.9 | 0.067 | < 0.1 | < 0.1 | 0.074 | – | – | 0.033 | < 0.1 | – | – | – | –
CC[C@H]1CC[C@@H](c2ncc(-c3ccc4c(c3)COc3cc5c(ccc6nc([C@@H]7CC[C@H](C)N7C(=O)[C@@H](NC(=O)OC)C7CCOCC7)[nH]c65)cc3-4)[nH]2)N1C(=O)[C@@H](NC(=O)OC)C(C)C [EN, methyl[(1 S)-2-[(2S,5S)-2-(9-{2-[(2S,5S)-5-ethyl-1-{(2S)-2 [(methoxycarbonyl)amino]-3-methylbutanoyl}pyrrolidin-2-yl]-1H-imidazol-5-yl}-1,11 dihydroisochromeno[4′,3′:6,7]naphtho[1,2-d]imidazol-2-yl)-5-methylpyrrolidin-1-yl]-2-oxo-1(tetrahydro-2H-pyran-4-yl)ethyl]carbamate] | 18 | < 100 | – | – | – | – | 34 | 29.9 | 0.061 | < 0.1 | < 0.1 | 0.095 | 0.052 | < 0.1 | 0.015 | < 0.1 | < 0.1 | 0.043 | – | –

Reference: US10800789B2, “Antiviral compounds” (Gilead Pharmasset LLC, priority 2012, dated 2020)
